Data on 1 compound can be found in ChEMBL document CHEMBL4420080, “Inhibitors of sox18 protein activity for treating angiogenesis- and/or lymphangiogenesis-related diseases” (2018).

Data set [1] is described as follows: Critical micellar concentration of the compound. The class given is physicochemical.
The subject of data set [2] is 4T1.2. In words: Antitumor activity against mouse 4T1.2 cells implanted in BALB/c mouse undergoing sham surgery without excising tumor on day 12 assessed as effect on mouse survival at 25 mg/kg/day for 10 days. The class given is functional, organism-based.
For data set [3], the target named is Alpha-1B adrenergic receptor (Rattus norvegicus) (UniProt P15823). In words: Inhibition of rat adrenergic alpha1B receptor at 10 uM relative to control.
For data set [4], the system named is 4T1.2. In words: Inhibition of tumor induced vascular response in mouse 4T1.2 cells implanted BALB/c mouse assessed as reduction in number of endothelial cells in tumor region at 25 mg/kg/day for 10 days by ERG/EMCN-detection based immunofluorescent staining relative to control. The class given is functional. To be noted: 4T1.2, 240 h.
The test system of data set [5] is Danio rerio. In words: Induction of arterial and venous genes dys-regulation in zebrafish larvae harboring fli1 a:eGFP,-6.5kdrl:mCherry assessed as effect on Ilk1 gene expression at 1.5 uM dosed starting from 16 hpf and measured at 24 and 48 hpf by qRT-PCR analysis. The class given is functional, organism-based. (In qPCR the cycle at which signal appears reflects the starting amount.)

Data set [6] in a line: Plasma concentration in BALB/c mouse xenografted with mouse 4T1.2 cells at 25 mg/kg/day for 10 days measured at day 7. The class given is ADME, organism-based.
Data set [7] addresses Transcription factor SOX-17 (Homo sapiens) (UniProt Q9H6I2). In words: Inhibition of SOX17 (unknown origin) expressed in African green monkey COS7 cells assessed as reduction in SOX17 transcriptional activity at. The class given is cell-based.
For data set [8], the target named is NAD-dependent protein deacetylase sirtuin-2 (Homo sapiens) (UniProt Q8IXJ6). In words: Inhibition of human Sirtuin2 at 10 uM relative to control.
Data set [9] addresses Thyroid Hormone Receptor (Rattus norvegicus) (UniProt P18113+P63059). In words: Inhibition of rat thyroid hormone receptor at 10 uM relative to control. The class given is protein assay.
Data set [10] relates to Danio rerio. In words: Induction of arterial and venous genes dys-regulation in zebrafish larvae harboring fli1 a:eGFP,-6.5kdrl:mCherry assessed as effect on Ilt4 gene expression at 1.5 uM dosed starting from 16 hpf and measured at 24 and 48 hpf by qRT-PCR analysis. The class given is functional, organism-based.
The target of data set [11] is Myc proto-oncogene protein (Homo sapiens) (UniProt P01106). In words: Inhibition of c-MYC in HUVEC assessed as reduction of c-MYC transcriptional activity by genome-wide RNA-seq and ChlP-seq analysis. The class given is cell-based.
Data set [12] concerns the target Cannabinoid receptor 1 (Homo sapiens) (UniProt P21554). In words: Inhibition of human CB1 receptor at 10 uM relative to control.
Data set [13] relates to 4T1.2. In words: Inhibition of tumor induced lymphangiogenesis response in mouse 4T1.2 cells implanted BALB/c mouse assessed as reduction in number of lymphatic endothelial cells at 25 mg/kg/day for 10 days by PROX1/podoplanin detection based immunofluorescent staining relative to control. The class given is functional. To be noted: 4T1.2, 240 h.

Activity calls are given as the source filed them. No cut-off for these calls is given here.

NAD-dependent protein deacetylase sirtuin-2 (Homo sapiens), sequence (Q8IXJ6 whole entry): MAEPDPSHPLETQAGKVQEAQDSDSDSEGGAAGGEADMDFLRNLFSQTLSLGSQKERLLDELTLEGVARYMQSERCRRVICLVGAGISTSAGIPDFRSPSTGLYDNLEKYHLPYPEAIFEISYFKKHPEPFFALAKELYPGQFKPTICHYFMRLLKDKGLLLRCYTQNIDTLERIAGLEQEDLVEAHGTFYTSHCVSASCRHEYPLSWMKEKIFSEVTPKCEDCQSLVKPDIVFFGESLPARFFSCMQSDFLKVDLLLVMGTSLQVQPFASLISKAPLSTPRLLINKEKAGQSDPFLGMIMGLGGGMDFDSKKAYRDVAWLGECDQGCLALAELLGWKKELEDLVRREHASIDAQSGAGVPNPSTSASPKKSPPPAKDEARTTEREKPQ
Cannabinoid receptor 1 (Homo sapiens), sequence (P21554 whole entry): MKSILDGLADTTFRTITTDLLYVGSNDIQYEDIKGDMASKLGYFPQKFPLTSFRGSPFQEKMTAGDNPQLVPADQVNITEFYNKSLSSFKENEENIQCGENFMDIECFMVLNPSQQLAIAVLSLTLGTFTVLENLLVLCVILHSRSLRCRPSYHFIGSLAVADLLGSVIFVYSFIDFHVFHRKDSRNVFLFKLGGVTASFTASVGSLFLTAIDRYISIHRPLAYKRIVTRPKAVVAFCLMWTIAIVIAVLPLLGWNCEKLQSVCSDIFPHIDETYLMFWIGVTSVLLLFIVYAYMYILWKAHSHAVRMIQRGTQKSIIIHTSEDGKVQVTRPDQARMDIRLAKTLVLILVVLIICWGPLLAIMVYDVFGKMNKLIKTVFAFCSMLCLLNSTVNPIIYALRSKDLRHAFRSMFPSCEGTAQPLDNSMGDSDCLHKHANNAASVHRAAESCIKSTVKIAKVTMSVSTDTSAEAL
Thyroid Hormone Receptor (Rattus norvegicus), sequence (P18113 whole entry, looked up): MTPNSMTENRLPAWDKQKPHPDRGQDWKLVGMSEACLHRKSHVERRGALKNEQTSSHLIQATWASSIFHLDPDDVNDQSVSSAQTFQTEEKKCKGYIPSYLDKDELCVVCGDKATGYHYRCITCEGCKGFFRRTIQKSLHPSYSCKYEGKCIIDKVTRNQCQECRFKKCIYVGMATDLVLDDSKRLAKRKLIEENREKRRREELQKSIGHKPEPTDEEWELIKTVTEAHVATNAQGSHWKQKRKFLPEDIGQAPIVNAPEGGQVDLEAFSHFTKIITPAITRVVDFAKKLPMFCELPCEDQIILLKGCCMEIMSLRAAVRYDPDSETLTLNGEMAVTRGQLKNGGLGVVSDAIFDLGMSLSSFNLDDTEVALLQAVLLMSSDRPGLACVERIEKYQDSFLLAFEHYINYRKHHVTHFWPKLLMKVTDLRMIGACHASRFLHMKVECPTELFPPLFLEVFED
Thyroid Hormone Receptor (Rattus norvegicus), sequence (P63059 whole entry, looked up): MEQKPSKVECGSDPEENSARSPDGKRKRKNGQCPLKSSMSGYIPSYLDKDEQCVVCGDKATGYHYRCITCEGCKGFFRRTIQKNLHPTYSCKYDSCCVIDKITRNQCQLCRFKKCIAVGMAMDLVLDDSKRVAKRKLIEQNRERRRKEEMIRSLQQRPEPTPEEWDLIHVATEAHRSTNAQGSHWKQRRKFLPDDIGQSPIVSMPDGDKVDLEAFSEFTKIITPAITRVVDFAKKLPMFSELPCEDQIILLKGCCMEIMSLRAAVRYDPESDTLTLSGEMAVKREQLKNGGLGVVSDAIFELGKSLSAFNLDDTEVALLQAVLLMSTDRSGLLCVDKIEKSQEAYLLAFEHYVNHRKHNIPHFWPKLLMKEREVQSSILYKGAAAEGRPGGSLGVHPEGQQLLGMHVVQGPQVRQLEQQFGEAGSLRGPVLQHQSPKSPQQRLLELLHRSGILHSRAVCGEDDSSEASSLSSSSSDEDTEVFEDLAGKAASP
Transcription factor SOX-17 (Homo sapiens), sequence (Q9H6I2 whole entry): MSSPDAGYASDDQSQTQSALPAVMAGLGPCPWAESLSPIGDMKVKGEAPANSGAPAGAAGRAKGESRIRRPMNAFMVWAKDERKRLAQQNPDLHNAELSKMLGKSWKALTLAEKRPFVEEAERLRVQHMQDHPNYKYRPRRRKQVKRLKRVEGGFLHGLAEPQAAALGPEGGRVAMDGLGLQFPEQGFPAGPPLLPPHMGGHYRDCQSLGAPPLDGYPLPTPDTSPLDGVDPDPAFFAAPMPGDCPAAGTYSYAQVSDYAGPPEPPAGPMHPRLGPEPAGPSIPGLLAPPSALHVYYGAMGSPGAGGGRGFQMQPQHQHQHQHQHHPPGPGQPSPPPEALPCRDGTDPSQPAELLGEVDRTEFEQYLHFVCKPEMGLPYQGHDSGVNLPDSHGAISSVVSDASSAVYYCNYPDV
Alpha-1B adrenergic receptor (Rattus norvegicus), sequence (P15823 whole entry): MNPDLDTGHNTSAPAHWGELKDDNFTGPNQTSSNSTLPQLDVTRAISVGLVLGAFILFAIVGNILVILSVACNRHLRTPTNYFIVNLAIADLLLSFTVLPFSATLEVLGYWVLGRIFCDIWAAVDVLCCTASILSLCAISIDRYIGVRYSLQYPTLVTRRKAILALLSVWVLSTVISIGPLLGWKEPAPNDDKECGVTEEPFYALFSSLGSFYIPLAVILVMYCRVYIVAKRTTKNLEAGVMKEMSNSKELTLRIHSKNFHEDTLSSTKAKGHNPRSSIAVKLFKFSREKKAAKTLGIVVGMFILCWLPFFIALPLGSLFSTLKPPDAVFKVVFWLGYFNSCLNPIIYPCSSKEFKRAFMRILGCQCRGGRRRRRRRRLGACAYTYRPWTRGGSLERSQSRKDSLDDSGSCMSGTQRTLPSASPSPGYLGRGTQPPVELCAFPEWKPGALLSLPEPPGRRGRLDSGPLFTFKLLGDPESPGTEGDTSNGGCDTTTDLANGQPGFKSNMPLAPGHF
Myc proto-oncogene protein (Homo sapiens), sequence (P01106 whole entry): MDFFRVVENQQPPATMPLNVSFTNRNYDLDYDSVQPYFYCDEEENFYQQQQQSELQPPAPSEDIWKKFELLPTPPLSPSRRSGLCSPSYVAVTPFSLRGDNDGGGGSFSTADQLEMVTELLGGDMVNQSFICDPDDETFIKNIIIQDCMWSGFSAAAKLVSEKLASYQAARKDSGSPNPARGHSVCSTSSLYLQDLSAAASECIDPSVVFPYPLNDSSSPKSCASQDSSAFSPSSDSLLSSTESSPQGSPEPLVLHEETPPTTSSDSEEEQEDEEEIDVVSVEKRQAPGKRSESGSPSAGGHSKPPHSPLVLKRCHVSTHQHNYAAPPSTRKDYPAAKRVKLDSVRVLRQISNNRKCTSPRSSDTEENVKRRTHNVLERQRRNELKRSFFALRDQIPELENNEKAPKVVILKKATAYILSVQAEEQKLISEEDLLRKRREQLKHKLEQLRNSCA

Compound `O=C(O)c1c(O)cccc1CCc1ccc2ccccc2c1` yielded a CMC in data set [1] above 1000 µM. Also, the outcome in the data set with 4T1.2 [2] was inactive. For the same compound, the inhibition – broadly, the drop in the measured response relative to a control, in per cent – was -1% in [3], -5.2% in data set [8], 36% in [9] and 3% in [12]. For the same compound, the inhibition in vivo (in general, the relative decrease from the control value, in per cent) at 25 mg/kg/day was found to be 48% in the data set on 4T1.2 [4] and 70% in the data set on 4T1.2 [13]. For the same compound, the outcome in the data set with Danio rerio [5] and in the data set on Danio rerio [10] was Active. In [6], the concentration at 240 h was 38300 ng/mL. Moreover, the inhibition result in data set [7] and in data set [11] was “inactive” throughout.
